In US7160894B2, “Tricyclic compound” (Asahi Kasei Pharma Corporation, priority 2003, dated 2007):

Experiments:
[1] = test system: cerebral hippocampal neurons; experiment: Neurite outgrowth action (Test Example 5); assay type: cell-based, Sprague-Dawley rats; settings: rat hippocampal neurons, 24 hours after addition
Method: From 18 day-old Sprague-Dawley rats, cerebral hippocampal neurons were prepared according to the method of Neuman et al. (Neuman, H. R. et al., J. Neurosci., 22, pp. 854–862, 2002). The prepared neurons were cultured for 24 hours according to the method of Tanaka et al. (Tanaka, H. et al., J. Cell Biol., 158 (2), pp. 321–329, 2002), then the medium was exchanged with fresh medium, and test medicaments of various concentrations or equivalent amounts of vehicle were added. Twenty-four hours after the addition of the medicaments, neurite length of each neuron was measured for the medicament-added group and the no-addition group, and compared. The neurite length was evaluated according to the method of Neuman et al. (Neuman, H. R. et al., J. Neurosci., 22, pp. 854–862, 2002).

[2] = test system: lipopolysaccharide-induced pulmonary inflammation; experiment: Pulmonary inflammation suppressing action, LPS-induced (Test Example 8); assay type: in vivo, BALB/c female mice; settings: mice, LPS inhalation, test compound by inhalation over 10 minutes, 3 hours after administration
Text: According to Gonzales de Moraes, V L., et al., Br. J. Pharmacol., 123, pp. 631–6, 1998, suppressing action on pulmonary inflammation was studied. BALB/c female mice (7-week old) were used for the test, as the compound administration group and positive control group, each consisting of 7 mice, as well as the negative control group consisting of 5 mice. For induction of inflammation, a 0.03% physiological saline solution of a lipopolysaccharide (LPS, a mixture derived from Escherichia coli O55 and B5 strains, Sigma) was used. A test compound was dissolved in physiological saline to prepare solutions of various concentrations. The test animals were first inhaled with the aforementioned lipopolysaccharide solution for 10 minutes by using a pressurization type nebulizer (PARI-IS2) to induce inflammation. Then, 1 minute after the completion of the inhalation of the lipopolysaccharide solution, the animals were administered with a solution of test compound at various concentrations over 10 minutes by inhalation using the aforementioned nebulizer. The mice of the positive control group were administered with the same volume of physiological saline instead of the test compound solution over 10 minutes by inhalation. Three hours after the administration of the test compound, pulmonary cavities of the test animals were washed with physiological saline, and the total infiltrated leucocyte (WBC) number was counted.

intraocular pressure = experiment: Intraocular pressure reducing action (Test Example 4); assay type: in vivo, Japanese white rabbit; settings: rabbit, 50 μl of aqueous solution dropped to the left eye
Method: A Japanese white rabbit having a body weight of about 2 kg was placed in a positioner and naturalized for one week before the experiment. An ophthalmologic local anesthesant (Benoxil) was administered to the left eye, and then intraocular pressure was measured by using a tonometer (Classic 30, Solan). The initial value of the intraocular pressure was measured, then 50 μl of an aqueous solution of a test compound was dropped to the left eye at various concentrations, and the intraocular pressure was measured with passage of time.

[3] = test system: ovalbumin-induced constriction of respiratory tract; experiment: Respiratory tract constriction suppressing action, intravenous administration (Test Example 3); assay type: in vivo, Hartley guinea pigs; settings: ovalbumin-immunized guinea pigs, administered from cannula in hind leg vein, measured for 15 minutes
Method: Four-week old Hartley guinea pigs (male) were immunized by intraperitoneal administration of ovalbumin (Sigma, Grade V) in amounts of 1 mg for each animal on the day on which the experiment was started, 3 mg for each animal after 2 days, and 10 mg for each animal after 4 days. Twelve to fourteen days after the final immunization, the ovalbumin-immunized guinea pigs were anesthetized by intraperitoneal administration of about 40 mg/kg of pentobarbital (Somnopentyl), and the tracheas were taken out. Subsequently, a cannula (SP-110, Natsume) was inserted into each trachea, and one end of the cannula was connected to an artificial respirator (Model-b83, Harvard). The aeration conditions were set at 6 ml per kilogram and 60 times per 1 minute. Further, a cannula for medicament administration (JMS wing needle 23G 3/4) was inserted into a hind leg vein. Myoblock (Organon Technica) was administered in an amount of 0.5 mg/kg from the cannula inserted into the hind leg vein to stop the spontaneous breathing, and after 2 or 3 minutes, 0.3 mg/kg of ovalbumin was administered to induce constriction of respiratory tract. The increase of airway resistance value 2 minutes after the induction (measurement apparatuses: pressure transducer TR-603T, respiratory amplifier AR-601G, and recorder RTA-3100, Nihon Kohden Corp.) was confirmed to be above 80 cm H2O or higher, and then, a solution of a test medicament was administered from the cannula inserted into the hind leg vein, and the airway resistance value was continuously measured for 15 minutes after the administration to determine the effect.

[4] = test system: thoracic aorta constricted with phenylephrine; experiment: Vasoconstriction inhibitory action (Test Example 2); set-up: species or system Rats (Wistar); settings: test compound 1 μM; rat thoracic aorta constricted with phenylephrine 1 μM
Text: Rats (Wistar, 11-week old) were bleeded to death and laparotomized to take out the thoracic aorta. That aorta was cut into a ring of a length of about 3 mm in a conventional manner (Asano, T., et al., J. Pharmacol. Exp. Ther., 241, pp. 1033–1040 (1987)) and hung in 10-ml organ bath filled with Krebs-Hensright nutrient solution bubbled with a mixed gas of 95% O2 and 5% CO2. One end of the blood vessel was connected to an isometric transducer (FD Pickup TB-912T, Nihon Kohden) and applied with 2.5 g of resting tension, and constriction and relaxation reactions of the aorta were recorded.
The aorta was constricted with phenylephrine (1 μM, Sigma) and then added with a test compound (1 μM), and the vasoconstriction inhibitory action thereof was observed. The vasoconstriction inhibitory actions of the test compounds were calculated as relaxation ratios, which were based on the vasoconstriction with phenylephrine observed immediately before the addition of the test compounds taken as 100%.

[5] = test system: ovalbumin-induced constriction of respiratory tract; experiment: Respiratory tract constriction suppressing action, administration by inhalation (Test Example 3); assay type: in vivo, Hartley guinea pigs; settings: ovalbumin-immunized guinea pigs, 2 ml solution by inhalation over 5 minutes
Method: Four-week old Hartley guinea pigs (male) were immunized by intraperitoneal administration of ovalbumin (Sigma, Grade V) in amounts of 1 mg for each animal on the day on which the experiment was started, 3 mg for each animal after 2 days, and 10 mg for each animal after 4 days. Further, the respiratory tract constriction suppression action of the test compounds was also evaluated by inhalation. Twelve to fourteen days after the final sensitization, 10 mg/kg of pyrilamine (Sigma), 5 mg/kg of indomethacin (Wako), or 0.1 mg/kg of propranolol (Sigma) was intraperitoneally administered. Then, 30 minutes after the administration, a 0.1% ovalbumin aqueous solution was inhaled by using a pressurization type nebulizer (PARI-IS2) to induce constriction of the respiratory tract. Ten minutes after the induction, 2 ml of a solution of a test compound prepared at various concentrations was filled in the aforementioned nebulizer, and administered by inhalation over 5 minutes. After the administration of pyrilamine and other drugs, airway resistance value was continuously measured to determine effectiveness.

[6] = test system: myosin regulatory light chain; settings: mesenteric artery, iris smooth muscle, astrocyte; cited from earlier work

Structure (SMILES) | neurite outgrowth (neurite length) [1] | pulmonary inflammation, total infiltrated leucocyte (WBC) number [2] | intraocular pressure reducing action (intraocular pressure) | improvement of constriction of respiratory tract (airway resistance value) [3] | vasoconstriction inhibitory action (relaxation ratio) [4] | improvement of constriction of respiratory tract (airway resistance value) [5] | inhibition of phosphorylation of the myosin regulatory light chain [6]
Cl.NC(=O)CN1CCC(N2CCc3cncc4cccc2c34)CC1 [Example 20] | significant neurite outgrowth axis extension | significantly improved the pathological condition | significant intraocular pressure reducing action | significantly improved the constriction of respiratory tract | significant vasoconstriction inhibitory action | significantly improved the constriction of respiratory tract | 
CC1CNCCN1S(=O)(=O)c1cccc2cnccc12 (centres unmarked) [Example H-7, 1-(5-isoquinolinesulfonyl)-2-methylpiperazine] |  |  |  |  |  |  | inhibits phosphorylation of the myosin regulatory light chain
Cl.NCCN[C@H]1CC[C@H](N2CCc3cncc4cccc2c34)CC1 [Example 24] | significant neurite outgrowth axis extension | significantly improved the pathological condition |  | significantly improved the constriction of respiratory tract | significant vasoconstriction inhibitory action | significantly improved the constriction of respiratory tract | 
Cl.O=C(O)CN1CCC(N2CCc3cncc4cccc2c34)CC1 [Example 17] | significant neurite outgrowth axis extension | significantly improved the pathological condition |  | significantly improved the constriction of respiratory tract | significant vasoconstriction inhibitory action | significantly improved the constriction of respiratory tract | 
